PubChem BioAssay (NCI)
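Grown in 96-well plates, cells were treated for 48 hours with each compound at five concentrations. Insufficient inhibition: endpoint recorded as highest concentration tested. Abbreviation: GI50, concentration required for 50% inhibition of growth. TGI is the concentration that stops growth completely.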

What was measured:
Assay in all cases: inhibition of tumour cell growth, NCI panel, 48 h
786-0 renal = tested on: 786-0 renal
A498 renal = tested on: A498 renal
A549 NSCLC = tested on: A549 NSCLC
ACHN renal = tested on: ACHN renal
BT-549 breast = tested on: BT-549 breast
CAKI-1 renal = tested on: CAKI-1 renal
CCRF-CEM leukemia = tested on: CCRF-CEM leukemia
COLO 205 colon = tested on: COLO 205 colon
DU-145 prostate = tested on: DU-145 prostate
EKVX NSCLC = tested on: EKVX NSCLC
HCC-2998 colon = tested on: HCC-2998 colon
HCT-116 colon = tested on: HCT-116 colon
HCT-15 colon = tested on: HCT-15 colon
HL-60(TB) leukemia = tested on: HL-60(TB) leukemia
HOP-62 NSCLC = tested on: HOP-62 NSCLC
HOP-92 NSCLC = tested on: HOP-92 NSCLC
HS 578T breast = tested on: HS 578T breast
K-562 leukemia = tested on: K-562 leukemia
KM12 colon = tested on: KM12 colon
LOX IMVI melanoma = tested on: LOX IMVI melanoma
M14 melanoma = tested on: M14 melanoma
MCF7 breast = tested on: MCF7 breast
MDA-MB-231 breast = tested on: MDA-MB-231 breast
MDA-MB-435 = tested on: MDA-MB-435
MOLT-4 leukemia = tested on: MOLT-4 leukemia
NCI-H226 lung = tested on: NCI-H226 lung
NCI-H23 lung = tested on: NCI-H23 lung
NCI-H460 lung = tested on: NCI-H460 lung
NCI-H522 lung = tested on: NCI-H522 lung
NCI/ADR-RES ovarian = tested on: NCI/ADR-RES ovarian
OVCAR-3 ovarian = tested on: OVCAR-3 ovarian
OVCAR-5 ovarian = tested on: OVCAR-5 ovarian
OVCAR-8 ovarian = tested on: OVCAR-8 ovarian
PC-3 prostate = tested on: PC-3 prostate
RPMI-8226 leukemia = tested on: RPMI-8226 leukemia
RXF 393 renal = tested on: RXF 393 renal
SF-268 CNS = tested on: SF-268 CNS
SF-295 CNS = tested on: SF-295 CNS
SF-539 CNS = tested on: SF-539 CNS
SK-MEL-2 melanoma = tested on: SK-MEL-2 melanoma
SK-MEL-28 melanoma = tested on: SK-MEL-28 melanoma
SK-MEL-5 melanoma = tested on: SK-MEL-5 melanoma
SN12C renal = tested on: SN12C renal
SNB-19 CNS = tested on: SNB-19 CNS
SNB-75 CNS = tested on: SNB-75 CNS
SW-620 colon = tested on: SW-620 colon
T-47D breast = tested on: T-47D breast
TK-10 renal = tested on: TK-10 renal
U251 CNS = tested on: U251 CNS
UACC-257 melanoma = tested on: UACC-257 melanoma
UACC-62 melanoma = tested on: UACC-62 melanoma

Q: What does the source list for `CCN1C2=C(SC(=S)C1=C1SC(C(=O)OC)=C(C(=O)OC)S1)SC(=Nc1ccc(OC)cc1)C2=O`?
A: GI50 (786-0 renal): 1.8 µM; TGI (786-0 renal): 3.34 µM; GI50 (A498 renal): 2.03 µM; TGI (A498 renal): 5.37 µM; GI50 (A549 NSCLC): 13.1 µM; TGI (A549 NSCLC): 62.5 µM; GI50 (ACHN renal): 1.82 µM; TGI (ACHN renal): 3.58 µM; GI50 (BT-549 breast): 1.71 µM; TGI (BT-549 breast): 4.06 µM; GI50 (CAKI-1 renal): 1.81 µM; TGI (CAKI-1 renal): 3.9 µM; GI50 (CCRF-CEM leukemia): 2.09 µM; TGI (CCRF-CEM leukemia): > 100 µM; GI50 (COLO 205 colon): 1.92 µM; TGI (COLO 205 colon): 5.74 µM; GI50 (DU-145 prostate): 1.73 µM; TGI (DU-145 prostate): 3.43 µM; GI50 (EKVX NSCLC): 3.62 µM; TGI (EKVX NSCLC): 21.3 µM; GI50 (HCC-2998 colon): 1.95 µM; TGI (HCC-2998 colon): 3.66 µM; GI50 (HCT-116 colon): 1.59 µM; TGI (HCT-116 colon): 3.11 µM; GI50 (HCT-15 colon): 3.02 µM; TGI (HCT-15 colon): 33.3 µM; GI50 (HL-60(TB) leukemia): 1.79 µM; TGI (HL-60(TB) leukemia): 6.83 µM; GI50 (HOP-62 NSCLC): 1.95 µM; TGI (HOP-62 NSCLC): 3.8 µM; GI50 (HOP-92 NSCLC): 2.97 µM; TGI (HOP-92 NSCLC): 26.1 µM; GI50 (HS 578T breast): 3.93 µM; TGI (HS 578T breast): > 100 µM; GI50 (K-562 leukemia): 2.36 µM; TGI (K-562 leukemia): > 100 µM; GI50 (KM12 colon): 1.67 µM; TGI (KM12 colon): 3.13 µM; GI50 (LOX IMVI melanoma): 1.69 µM; TGI (LOX IMVI melanoma): 3.43 µM; GI50 (M14 melanoma): 1.75 µM; TGI (M14 melanoma): 3.75 µM; GI50 (MCF7 breast): 1.9 µM; TGI (MCF7 breast): 5.75 µM; GI50 (MDA-MB-231 breast): 3.39 µM; TGI (MDA-MB-231 breast): > 100 µM; GI50 (MDA-MB-435): 2.21 µM; TGI (MDA-MB-435): 5.55 µM; GI50 (MOLT-4 leukemia): 1.54 µM; TGI (MOLT-4 leukemia): 5.29 µM; GI50 (NCI-H226 lung): 2.25 µM; TGI (NCI-H226 lung): 5.26 µM; GI50 (NCI-H23 lung): 2.27 µM; TGI (NCI-H23 lung): 4.17 µM; GI50 (NCI-H460 lung): 2.02 µM; TGI (NCI-H460 lung): 4.65 µM; GI50 (NCI-H522 lung): 1.59 µM; TGI (NCI-H522 lung): 3.96 µM; GI50 (NCI/ADR-RES ovarian): 3.05 µM; TGI (NCI/ADR-RES ovarian): 7.19 µM; GI50 (OVCAR-3 ovarian): 1.79 µM; TGI (OVCAR-3 ovarian): 3.39 µM; GI50 (OVCAR-5 ovarian): 2.37 µM; TGI (OVCAR-5 ovarian): 6.19 µM; GI50 (OVCAR-8 ovarian): 2.82 µM; TGI (OVCAR-8 ovarian): > 100 µM; GI50 (PC-3 prostate): 3.01 µM; TGI (PC-3 prostate): > 100 µM; GI50 (RPMI-8226 leukemia): 2.38 µM; TGI (RPMI-8226 leukemia): 9.19 µM; GI50 (RXF 393 renal): 1.88 µM; TGI (RXF 393 renal): 3.98 µM; GI50 (SF-268 CNS): 2.56 µM; TGI (SF-268 CNS): 7.64 µM; GI50 (SF-295 CNS): 1.31 µM; TGI (SF-295 CNS): 3.55 µM; GI50 (SF-539 CNS): 1.86 µM; TGI (SF-539 CNS): 3.77 µM; GI50 (SK-MEL-2 melanoma): 2.09 µM; TGI (SK-MEL-2 melanoma): 5.29 µM; GI50 (SK-MEL-28 melanoma): 1.69 µM; TGI (SK-MEL-28 melanoma): 3.25 µM; GI50 (SK-MEL-5 melanoma): 1.63 µM; TGI (SK-MEL-5 melanoma): 3.08 µM; GI50 (SN12C renal): 2.76 µM; TGI (SN12C renal): > 100 µM; GI50 (SNB-19 CNS): 2.89 µM; TGI (SNB-19 CNS): 10.8 µM; GI50 (SNB-75 CNS): 1.1 µM; TGI (SNB-75 CNS): 2.53 µM; GI50 (SW-620 colon): 1.77 µM; TGI (SW-620 colon): 3.7 µM; GI50 (T-47D breast): 2.16 µM; TGI (T-47D breast): 5.88 µM; GI50 (TK-10 renal): 5.08 µM; TGI (TK-10 renal): > 100 µM; GI50 (U251 CNS): 1.65 µM; TGI (U251 CNS): 3.27 µM; GI50 (UACC-257 melanoma): 1.76 µM; TGI (UACC-257 melanoma): 3.87 µM; GI50 (UACC-62 melanoma): 1.73 µM; TGI (UACC-62 melanoma): 3.84 µM
